Inhibition data for 16 compounds are collected here from patent US8173689B2 (Novartis AG, priority 2006, dated 2012).

SMILES strings stand for the structures. Where two headings read alike, the source gives them in different places.

One test has as its target T1, kinase domain of cKIT (Homo sapiens, UniProt P10721).
T1 construct: The kinase domain of cKIT was assayed in 50 mM Hepes; purchased Upstate 14-559
Put plainly: Inhibition of cKIT kinase signaling in an in vitro biochemical assay (alphascreen). Particulars: tested at about 1 μM, read-out: cKit percent inhibition. On the technique in general: Bead proximity is the source of the signal in Alpha formats.

For test [1], the target named is T2, cytoplasmic domain of the human CSF-1R (Homo sapiens, UniProt P07333).
T2 construct: Recombinant protein corresponding to the cytoplasmic domain of the human CSF-1R; purchased Invitrogen Corporation, Carlsbad, Calif; PV3249
T2 sequence (P07333 539-972 limits assumed): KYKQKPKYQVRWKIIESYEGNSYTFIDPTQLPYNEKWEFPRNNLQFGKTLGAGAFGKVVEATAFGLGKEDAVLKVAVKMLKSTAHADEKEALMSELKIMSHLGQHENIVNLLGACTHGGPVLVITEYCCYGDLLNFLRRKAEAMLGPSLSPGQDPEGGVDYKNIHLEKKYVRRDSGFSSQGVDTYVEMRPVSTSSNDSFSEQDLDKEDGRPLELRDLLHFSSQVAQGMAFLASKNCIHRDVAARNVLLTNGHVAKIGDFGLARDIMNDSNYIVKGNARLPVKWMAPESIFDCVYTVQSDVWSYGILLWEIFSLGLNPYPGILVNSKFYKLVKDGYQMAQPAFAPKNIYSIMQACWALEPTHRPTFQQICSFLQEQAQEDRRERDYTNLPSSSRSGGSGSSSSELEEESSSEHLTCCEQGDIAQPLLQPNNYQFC
Put plainly: In vitro kinase assay for colony stimulating factor-1 receptor (AlphaScreen). The test is classed as biochemical. The settings on record: tested at about 1 μM, read-out: CSF-1R percent inhibition. The method, boiled down:
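Tyrosine phosphorylation of a peptide substrate by 4 nM recombinant cytoplasmic-domain enzyme is measured at 1 μM ATP in Mn2+/Mg2+-containing Hepes buffer, pH 7.5. Detection uses PT66 AlphaScreen beads after overnight incubation.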

The next test has as its target T3, kinase domain of PDGFRβ (Homo sapiens, UniProt P09619).
T3 construct: The kinase domain of PDGFRβ was assayed in 50 mM Hepes; purchased Invitrogen P3082
Put plainly: Inhibition of PDGFRb kinase signaling in an in vitro biochemical assay (alphascreen). The settings on record: tested at about 1 μM, read-out: PDGFRβ percent inhibition.

The test system of test [2] is MNFS60 (murine AML cells). Put plainly: Cell viability assay in MCSF dependent MNFS60 cells (Cell Titer Glo). Particulars: Mus musculus, tested at about 1 μM, read-out: M-NFS-60 CP percent inhibition. The class given is cell-based. The method, boiled down:
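Compounds were serially diluted 3-fold in DMSO to 500× final and added to cells with MCSF at 10 ng/ml final. After 72 hrs at 37° C. under 5% CO2, viable cells were quantified by CellTiter-Glo luminescence; triplicate wells gave EC50 values by curve fitting.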
In general terms: ATP-based viability assays read luminescence as a measure of living cells.

Test [3] concerns the target T4, full-length human CSF-1R receptor (Homo sapiens, UniProt P07333).
T4 construct: transfected with the full-length human CSF-1R receptor cloned in house; expressed in transfected cells; host or cells: HEK293H (Invitrogen Cat. #11631017)
Kind of test: In vitro inhibition of CSF-1R receptor tyrosine phosphorylation in transfected HEK293H cells stimulated with MCSF. The class given is cell-based. Particulars: HEK293-H, tested at about 1 μM, read-out: pCSF1R percent inhibition. The protocol: The lysate was then transferred to total CSF-1R antibody coated 96-well plates that had already been blocked with 3% Blocker A from Mesoscale discovery (MSD) for 2 hours and washed afterwards. Lysates were incubated overnight at 4° C. and the plates were then washed 4× with MSD Tris Wash Buffer. […] The plates were read on the Sector 6000 instrument (MSD). Raw data was imported in Abase and EC50s calculated with XL-fit data analysis software.

T4 sequence (P07333 20-972): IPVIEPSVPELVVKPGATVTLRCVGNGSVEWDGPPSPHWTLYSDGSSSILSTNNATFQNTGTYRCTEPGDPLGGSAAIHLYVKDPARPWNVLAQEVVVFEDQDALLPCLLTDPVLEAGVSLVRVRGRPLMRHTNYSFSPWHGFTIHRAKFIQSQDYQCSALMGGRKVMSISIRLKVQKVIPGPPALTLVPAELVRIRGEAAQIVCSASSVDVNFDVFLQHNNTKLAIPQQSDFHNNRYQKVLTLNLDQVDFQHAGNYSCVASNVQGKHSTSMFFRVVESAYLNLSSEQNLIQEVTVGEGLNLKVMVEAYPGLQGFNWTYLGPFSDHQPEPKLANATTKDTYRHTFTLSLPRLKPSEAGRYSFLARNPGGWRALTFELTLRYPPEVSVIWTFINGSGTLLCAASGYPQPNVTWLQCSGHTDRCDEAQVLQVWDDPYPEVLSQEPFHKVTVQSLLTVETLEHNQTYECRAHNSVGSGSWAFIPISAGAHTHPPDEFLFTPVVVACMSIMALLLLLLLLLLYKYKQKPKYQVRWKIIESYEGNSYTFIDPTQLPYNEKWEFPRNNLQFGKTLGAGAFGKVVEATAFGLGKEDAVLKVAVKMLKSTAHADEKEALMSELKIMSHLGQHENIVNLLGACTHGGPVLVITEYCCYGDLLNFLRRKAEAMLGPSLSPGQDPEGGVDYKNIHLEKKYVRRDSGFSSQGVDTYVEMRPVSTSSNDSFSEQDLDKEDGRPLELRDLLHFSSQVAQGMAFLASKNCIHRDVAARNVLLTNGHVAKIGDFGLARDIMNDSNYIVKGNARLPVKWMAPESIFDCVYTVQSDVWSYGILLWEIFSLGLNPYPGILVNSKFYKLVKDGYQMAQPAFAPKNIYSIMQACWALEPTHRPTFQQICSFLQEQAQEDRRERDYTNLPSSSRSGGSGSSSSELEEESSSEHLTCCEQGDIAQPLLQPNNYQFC
T1 sequence (P10721 589-937 limits assumed): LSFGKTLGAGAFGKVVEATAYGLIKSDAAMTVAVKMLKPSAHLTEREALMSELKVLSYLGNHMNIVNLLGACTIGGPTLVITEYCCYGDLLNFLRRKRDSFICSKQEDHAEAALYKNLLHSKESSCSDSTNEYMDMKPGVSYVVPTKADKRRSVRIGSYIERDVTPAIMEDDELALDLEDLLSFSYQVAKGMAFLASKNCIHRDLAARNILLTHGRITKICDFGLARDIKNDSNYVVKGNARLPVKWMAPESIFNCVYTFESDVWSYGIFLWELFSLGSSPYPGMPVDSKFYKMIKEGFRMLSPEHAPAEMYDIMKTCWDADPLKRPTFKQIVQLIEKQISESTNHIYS
T3 sequence (P09619 600-962 limits assumed): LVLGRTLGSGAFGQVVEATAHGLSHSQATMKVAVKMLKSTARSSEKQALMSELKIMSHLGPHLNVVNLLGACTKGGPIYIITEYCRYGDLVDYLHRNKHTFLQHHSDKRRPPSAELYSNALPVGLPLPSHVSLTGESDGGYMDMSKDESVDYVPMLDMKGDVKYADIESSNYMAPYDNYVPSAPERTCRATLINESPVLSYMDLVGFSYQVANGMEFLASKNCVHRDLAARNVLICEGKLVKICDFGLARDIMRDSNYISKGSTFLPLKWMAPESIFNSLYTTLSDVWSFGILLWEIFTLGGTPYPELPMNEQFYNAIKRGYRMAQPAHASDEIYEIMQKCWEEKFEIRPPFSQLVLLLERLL

With `CC(C)C[C@H](CO)Nc1nc2ccc(Oc3ccnc4ccccc34)cc2s1` [Example 245, (R)-4-methyl-2-(6-(quinolin-4-yloxy)benzo[d]thiazol-2-ylamino)pentan-1-ol], the inhibition (commonly the percentage by which the read-out fell short of the control) at 1 µM stood at 16% on kinase domain of cKIT (compounds of Table 3); 100% in test [1] (compounds of Table 3); 21% at kinase domain of PDGFRβ (compounds of Table 3); 53% in test [2] (compounds of Table 3); 81% in test [3] (compounds of Table 3).
On the same counts, the results for `O[C@@H]1CCCC[C@H]1Nc1nc2ccc(Oc3ccnc4c(F)cccc34)cc2s1` [Example 263, (1R,2R)-2-(6-(8-fluoroquinolin-4-yloxy)benzo[d]thiazol-2-ylamino)cyclohexanol] are 12%, 99%, 0%, 22% and 24%.
Take `CNC(=O)c1cc(Oc2ccc3nc(N[C@H]4CCCC[C@@H]4NS(C)(=O)=O)sc3c2)ccn1` [Example 330, N-mehtyl-4-(2-((1S,2S)-2-(methylsulfonamido)cyclo-hexylamino)benzo[d]thiazol-6-yloxy)picolinamide]: the inhibition at 1 µM turned out to be 41% at kinase domain of cKIT; 99% in test [1]; 8% at kinase domain of PDGFRβ; 58% in test [2] (MCSF dependent MNFS60 cells); 50% in test [3] (HEK293H cells).
For the compound `CNC(=O)c1cc(Oc2ccc3nc(NCc4c(OC)cccc4OC)sc3c2)ccn1` [Compound 145, 4-[2-(2,6-Dimethoxy-benzyl-amino)-benzothiazol-6-yloxy]-pyridine-2-carboxylic acid methylamide], the inhibition at 1 µM at kinase domain of cKIT is 34%; in test [1], 99%; on kinase domain of PDGFRβ, 25%; in test [2] (MNFS60 cells), 100%; in test [3] (HEK293H cells), 98%.
`C[C@H](Nc1nc2ccc(Oc3ccnc4ccccc34)cc2s1)C1CCCCC1` [Example 241, (S)-N-(1-cyclohexylethyl)-6-(quinolin-4-yloxy)benzo[d]thiazol-2-amine]: the inhibition at 1 µM at kinase domain of cKIT (compounds of Table 3) was 25%; in test [1] (compounds of Table 3), 100%; at kinase domain of PDGFRβ (compounds of Table 3), 23%; in test [2] (compounds of Table 3), 51%; in test [3] (compounds of Table 3) it was 65%.
As to `CCNc1cc(Oc2ccc3nc(NCC4CCCCC4)sc3c2)ccn1` [Example 339, N-(cyclohexylmethyl)-6-(2-(ethylamino)pyridin-4-yloxy)benzo[d]thiazol-2-amine], the inhibition at 1 µM at kinase domain of cKIT worked out at 66%; in test [1], 100%; at kinase domain of PDGFRβ, 69%; in test [2] (MCSF dependent MNFS60 cells), 66%; in test [3] (HEK293H cells), 84%.
On to `COc1ccc(-c2cc(Oc3ccc4nc(N[C@@H]5CCCC[C@H]5O)sc4c3)ccn2)cn1` [Cmpd 170, (1R,2R)-2-(6-(6'-methoxy-2,3'-bipyridin-4-yloxy)benzo[d]thiazol-2-ylamino)cyclohexanol], for which the inhibition at 1 µM on kinase domain of cKIT (compounds of Table 3) worked out at 28%; in test [1] (compounds of Table 3), 100%; on kinase domain of PDGFRβ (compounds of Table 3), 23%; in test [2] (compounds of Table 3), 100%; in test [3] (compounds of Table 3), 96%.
`CCOc1ccccc1CNc1nc2ccc(Oc3ccnc(C(=O)NC)c3)cc2o1` [Compound 96, 4-[2-(2-Ethoxy-benzylamino)-benzooxazol-6-yloxy]-pyridine-2-carboxylic acid methylamide]: the inhibition at 1 µM on kinase domain of cKIT amounted to 33%; in test [1], 99%; at kinase domain of PDGFRβ, 3%; in test [2] (MNFS60 cells), 75%; in test [3] (HEK293H cells), 89%.
On the same counts, the results for `CNC(=O)c1cc(Oc2ccc3nc(NCc4cccc(F)c4F)oc3c2)ccn1` [Compound 79, 4-[2-(2,3-Difluoro-benzylamino)-benzooxazol-6-yloxy]-pyridine-2-carboxylic acid methylamide] are 31%, 100%, 0%, 57% and 94%.
`O[C@@H]1CCCC[C@H]1Nc1nc2ccc(Oc3ccnc(-c4cccc(CN5CCOCC5)c4)c3)cc2s1` [Cmpd 166, (1R,2R)-2-(6-(2-(3-(morpholinomethyl)phenyl)pyridin-4-yloxy)benzo[d]thiazol-2-ylamino)cyclohexanol]: the inhibition at 1 µM on kinase domain of cKIT (compounds of Table 3) turned out to be 13%; in test [1] (compounds of Table 3) it was 100%; at kinase domain of PDGFRβ (compounds of Table 3), 0%; in test [2] (compounds of Table 3), 49%; in test [3] (compounds of Table 3) it was 78%.
Regarding `O[C@@H]1CCCC[C@H]1Nc1nc2ccc(Oc3ccnc(-c4ncco4)c3)cc2s1` [Example 372, (1R,2R)-2-(6-(2-(oxazol-2-yl)pyridin-4-yloxy)benzo[d]thiazol-2-ylamino)cyclohexanol], the inhibition at 1 µM was 21% on kinase domain of cKIT; 100% in test [1]; 8% at kinase domain of PDGFRβ; 75% in test [2] (MCSF dependent MNFS60 cells); 88% in test [3] (HEK293H cells).
Consider `CNC(=O)c1cc(Oc2ccc3nc(NCc4ccccc4C(F)(F)F)oc3c2)ccn1` [Compound 97, 4-[2-(2-Trifluoromethyl-benzylamino)-benzooxazol-6-yloxy]-pyridine-2-carboxylic acid methylamide], for which the inhibition at 1 µM at kinase domain of cKIT stood at 99%; in test [1] it was 99%; on kinase domain of PDGFRβ, 5%; in test [2] (MNFS60 cells), 67%; in test [3] (HEK293H cells), 84%.
For the compound `CCCc1nc(-c2cc(Oc3ccc4nc(N[C@@H]5CCCC[C@H]5O)sc4c3)ccn2)[nH]c1C` [Example 267, (1R,2R)-2-(6-(2-(5-methyl-4-propyl-1H-imidazol-2-yl)pyridin-4-yloxy)benzo[d]thiazol-2-ylamino)cyclohexanol], the inhibition at 1 µM was determined as 16% at kinase domain of cKIT (compounds of Table 3); 100% in test [1] (compounds of Table 3); 26% on kinase domain of PDGFRβ (compounds of Table 3); 100% in test [2] (compounds of Table 3); 96% in test [3] (compounds of Table 3).
For the compound `O[C@@H]1CCCC[C@H]1Nc1nc2ccc(Oc3ccnc(-c4cn[nH]c4)c3)cc2s1` [Example 360, (1R,2R)-2-(6-(2-(1H-pyrazol-4-yl)pyridin-4-yloxy)benzo[d]thiazol-2-ylamino)cyclohexanol], the inhibition at 1 µM at kinase domain of cKIT amounted to 29%; in test [1], 100%; on kinase domain of PDGFRβ, 16%; in test [2] (MCSF dependent MNFS60 cells), 100%; in test [3] (HEK293H cells), 98%.
Regarding `CNC(=O)c1cc(Oc2ccc3nc(NCCc4ccncc4)sc3c2)ccn1` [Example 316, N-methyl-4-(2-(2-(pyridin-4-yl)ethylamino)benzo[d]thiazol-6-yloxy)picolinamide], the inhibition at 1 µM worked out at 8% at kinase domain of cKIT; 99% in test [1]; 12% at kinase domain of PDGFRβ; 41% in test [2] (MCSF dependent MNFS60 cells); 98% in test [3] (HEK293H cells).
In the case of `CNC(=O)c1cc(Oc2ccc3nc(NC4CCCc5ccccc54)oc3c2)ccn1` (centres unmarked) [Compound 104, 4-[2-(1,2,3,4-Tetrahydro-naphthalen-1-ylamino)-benzooxazol-6-yloxy]-pyridine-2-carboxylic acid methylamide], the inhibition at 1 µM at kinase domain of cKIT was 18%; in test [1], 99%; at kinase domain of PDGFRβ it was 10%; in test [2] (MNFS60 cells) it was 47%; in test [3] (HEK293H cells), 63%.
